From US6103729A, “Cathecol derivatives and a method for the preparation thereof and a pharmaceutical composition containing the same” (Cheil Jedang Corp., priority 1996, dated 2000)

Tests used:
Wistar rats = assay: Passive Cutanious Anaphylaxis (PCA); format: in vivo, rat; settings: oral, female Wistar rats, evans blue read at 620 nm
Procedure: I. Passive Cutanious Anaphylaxis (PCA)
Hair on the back of each of the three 5 weeks old female Wistar rats were cut by clippers. Prepared mouse antiserum was diluted with 50×physiological saline solution. 0.05 ml of diluted antiserum solution was subcutaneously injected into two hair-cut sites on the back of each rat. After 3 hours, the test compounds were orally administered to the rats. After 30 minutes, 0.1% ovalbumin as antigen was mixed with 1% evans blue in the equivalent volumes and 0.1 ml of the mixture was injected in a peripheral vein of the tail of each rat. After 30 minutes, rats were sacrificed by bleeding from the abdominal arteries and their skins were stripped from the subcutaneous injection spots in uniform sizes. After immersing the stripped skins in 1.0 ml of 1.2 N KOH in 9 ml test tube and stopping the tube, a shaking incubation was performed at 37° C. for 24 hours. Then, after the mixtured solution of acetone and 0.6 N phosphoric acid (13:5) was added, the test tube was shaking-incubated for 1 hour and centrifuged to 1,700 g at 20° C. for 10 minutes. After insoluble lipids were removed from the top of the supernatant, the supernatant was measured at 620 nm. IgE was quantified by diluting the mixtured acetone-phosphoric aicd solution and drawing evans blue assay lines. The results are shown in Table I below, in which the amounts of IgE were expressed as μg/ml.

Phosphodiesterase II = target: T1, Phosphodiesterase II (Homo sapiens, UniProt O00408); assay: Inhibition of phosphodiesterase activity ([3H]cAMP hydrolysis); format: biochemical; settings: PDE partially purified from human U937 cells, 1.0 μM cAMP, 30° C., 20 minutes; test concentration not given
T1 construct: partially purified from human U937 cells; endogenous in cells; host or cells: U937 cells (partially purified)
T1 sequence (O00408 whole entry): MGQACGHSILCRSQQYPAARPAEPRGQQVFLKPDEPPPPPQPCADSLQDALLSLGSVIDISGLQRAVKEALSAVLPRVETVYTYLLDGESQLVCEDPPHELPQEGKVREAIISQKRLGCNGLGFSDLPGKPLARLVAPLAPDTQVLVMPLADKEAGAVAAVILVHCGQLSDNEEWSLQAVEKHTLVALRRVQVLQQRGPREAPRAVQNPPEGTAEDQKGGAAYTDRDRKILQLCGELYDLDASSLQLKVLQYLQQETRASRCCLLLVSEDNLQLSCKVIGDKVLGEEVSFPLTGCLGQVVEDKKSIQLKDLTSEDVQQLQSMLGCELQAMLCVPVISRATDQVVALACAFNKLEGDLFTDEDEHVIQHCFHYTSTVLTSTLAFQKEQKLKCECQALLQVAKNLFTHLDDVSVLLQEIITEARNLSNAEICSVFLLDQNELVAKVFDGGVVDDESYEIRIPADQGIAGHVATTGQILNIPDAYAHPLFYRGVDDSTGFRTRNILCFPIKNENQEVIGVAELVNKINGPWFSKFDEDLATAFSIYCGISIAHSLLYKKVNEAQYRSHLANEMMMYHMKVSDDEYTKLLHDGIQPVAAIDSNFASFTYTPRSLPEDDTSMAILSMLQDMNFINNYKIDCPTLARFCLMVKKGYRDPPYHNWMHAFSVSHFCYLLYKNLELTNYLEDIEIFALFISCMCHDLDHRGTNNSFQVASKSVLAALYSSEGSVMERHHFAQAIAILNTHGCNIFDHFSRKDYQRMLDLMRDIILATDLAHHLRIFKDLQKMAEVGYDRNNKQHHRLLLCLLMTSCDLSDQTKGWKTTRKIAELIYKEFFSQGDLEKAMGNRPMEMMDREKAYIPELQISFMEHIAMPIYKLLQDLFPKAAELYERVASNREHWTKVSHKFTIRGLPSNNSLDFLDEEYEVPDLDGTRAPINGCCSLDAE
Procedure: (§1) II. Inhibition of Phosphodiesterase IV Activity
(§2) Phosphodiesterase I, II, III, IV or V partially purified from human U937 cells, test compound of Example 1, 2 or 3 and 1.0 μM cAMP including μM [^3 H] cAMP were incubated at 30° C. for 20 minutes. The PDE reaction to convert cAMP into AMP was completed by boiling the reaction solution for 2 minutes. AMP was converted into adenosine by adding snake venom nucleotidase and incubating the reaction solution for 10 minutes. While unhydrolyzed cAMPs were bonded to AG1-X2 resin, the aqueous remaining [^3 H] adenosine was quantified by scintillation counting. The results are shown in Table II below, in which the values indicate inhibition(%) of each PDE by each test compound.

Phosphodiesterase III = assay: as above; format: biochemical; settings: PDE partially purified from human U937 cells, 1.0 μM cAMP, 30° C., 20 minutes; test concentration not given
Procedure: as §1, §2

Phosphodiesterase IV = assay: as above; format: biochemical; settings: PDE partially purified from human U937 cells, 1.0 μM cAMP, 30° C., 20 minutes; test concentration not given
Procedure: as §1, §2

Phosphodiesterase I = assay: as above; format: biochemical; settings: PDE partially purified from human U937 cells, 1.0 μM cAMP, 30° C., 20 minutes; test concentration not given
Procedure: as §1, §2

Phosphodiesterase V = target: T2, Phosphodiesterase V (Homo sapiens, UniProt O76074); assay: as above; format: biochemical; settings: PDE partially purified from human U937 cells, 1.0 μM cAMP, 30° C., 20 minutes; test concentration not given
T2 construct: printed source human U937 cells (possibly human platelets in practice)
Procedure: as §1, §2

Compound | amounts of IgE (Wistar rats; dose 0.1 mg/rat) [µg/mL] | amounts of IgE (Wistar rats; dose 2.0 mg/rat) [µg/mL] | inhibition(%) of Phosphodiesterase Type II (Phosphodiesterase II) [%] | inhibition(%) of Phosphodiesterase Type III (Phosphodiesterase III) [%] | inhibition(%) of Phosphodiesterase Type IV (Phosphodiesterase IV) [%] | inhibition(%) of Phosphodiesterase Type I (Phosphodiesterase I) [%] | inhibition(%) of Phosphodiesterase Type V (Phosphodiesterase V) [%]
COc1ccc(C(=O)Nc2n[nH]cc2C(N)=O)cc1OC1CCCC1 [Example 1, 3-(3-cyclopentyloxy-4-methoxyphenylcarboxylamido)-1H-4-pyrazolecarboxylamide] | 4.578 | 4.099 | 65 | 68 | 90 | 58 | 89
COc1ccc(C(=O)Nc2nc[nH]c2C(N)=O)cc1OC1CCCC1 [Example 2] | 3.381 | 2.694 | 60 | 67 | 80 | 68 | 61
COc1ccc(C(=O)Nc2ccsc2C(N)=O)cc1OC1CCCC1 [Example 3] |  |  | 68 | 74 | 90 | 67 | 69
